In data set [1] the test system is bovine viral diarrhea virus (BVDV). Briefly: anti-BVDV drug screening assay (CPE inhibition, MTS staining). Format: cell-based. The conditions noted are these: for EC50: Bovine viral diarrhea virus isolates and strains, 144 h, read-out: MDBK/BVDV EC50; for TI (TC50/EC50): therapeutic index, MDBK TC50 / BVDV EC50. Here is the method: To assess the effectiveness of the pyrimidinedione derivative used in the present invention as a drug for preventing or treating hepatitis C, an anti-BVDV drug screening assay was conducted with bovine viral diarrhea virus (BVDV). BVDV, a virus having a genome, reproduction cycle and infection type similar to hepatitis C virus, was employed because hepatitis C virus can not be subjected to […] cultivation.
(§1) One day before the screening, MDBK cell line (Mardin-Darby bovine kidney, ATTC CCL22) which had been subcultured previously was trypsinized and spread on a plate, followed by counting the cell colonies formed. Then, equal amount of DMEM (Dulbecco's Modified Eagle's Medium) and Ham's F-12 were mixed, and 10% fetal bovine serum was added to the resulting mixture to prepare a tissue culture medium. The MDBK cells were inoculated to the medium at a concentration of 6×10^4 cells/ml, and then the resulting cell solution was added to a 96-well flat-bottomed plate in an amount of 100 μl per well.
Meanwhile, BVDV (ATCC VR534), which had been stored in a −80° C. freezer at a pre-determined concentration, was transferred to a biological safety cabinet and allowed to thaw at room temperature. The virus was diluted with the tissue culture medium in an sufficient amount for the virus in each well to induce 85 to 95% cell death 6 days after the virus infection.
(§2) Specified pyrimidinedione derivatives (SAMJIN Pharmaceuticals) were prepared as test compounds and a conventional drug for treating hepatitis C, Ribavirin (Sigma) was used as a comparative drug. Each of the test compounds was dissolved in DMSO to prepare a sample solution. Then, the resulting sample solution was diluted with a mixture prepared by mixing equal amount of DMEM and Ham's F-12 in accordance with the three one-log series dilution to prepare sample dilutes.
(§3) One day after adding MDBK cells to the 96-well plate, the culture solution on the plate was removed and each of the sample dilutes obtained step 2 was added thereto, adjusting the final concentration thereof to 1 to 100 μg/ml. The comparative drug, Ribavirin, was added to each of the control wells of the palte at a concentration of 1 to 100 μg/ml.
(§4) The well-plate comprising ‘cell control group well’ containing MDBK cell only; ‘virus control well’ containing MDBK cell and BVDV virus; ‘drug toxicity control well’ containing MDBK cell and sample compounds for assessing the cell toxicity of each sample; ‘drug calorimetric control well’ containing only one of the sample compounds; and ‘experimental group well’ containing MDBK cell, BVDV virus and one of the sample compounds.
(§5) The well-plate had been placed in a 5% CO2 incubator at 37° C. for 6 days, and then, analyzed with Cell Proliferation Assay kit (CellTiter96® AQUEOUS one solution, Promega). The analysis involves the step of counting live cells by a colorimetric method and the kit contains MTS, a new tetrazolium compound which forms a stable solution when the test compounds are added, and PES, an electron coupling agent. In a cell having vigorous metabolism, NADPH or NADH generated by mitochodrial dehydrogenase renders the soluble MTS to a form of […] formazan crystals. Therefore, the amount of formazan crystal is directly proportional to the number of live cells in a medium.
(§6) The CellTiter96® AQUEOUS one solution reagent of 10 μl was added to each well of the plate and cultivated in a incubator at 37° C. for 4 hours. Then, the plate was covered with an adhesive plate sealer, mixing formazan crystals. Absorbance of each well was measured by Molecular Devices Vmax plate reader (Molecular Devices) at 490 nm.
The toxicity of each sample compound was analyzed with a in-house computer program and the cytopathic effect (CPE), followed by calculating % cell activity, therapeutic Index (TI). […]

Data set [2] is described as follows: drug toxicity control in uninfected MDBK cells (MTS staining). Format: cell-based. The note with it: bovine. Here is the method: as §1, §2, §3, §4, §5, §6
The toxicity of each sample compound was analyzed with a in-house computer program and the cytopathic effect (CPE), followed by calculating % cell activity, therapeutic Index (TI).
In table 2, EC50 means the dosage at which the desired response is present for 50% of the population, i.e., the concentration of the sample compounds at which the BVDV infection was inhibited for 50% of MDBK cells; TC50 means the dosage at which cell death is induced for 50% of the population, i.e., the cytotoxicity of the sample compounds for MDBK cells. TI (TC50/EC50) means a comparison of the amount of a therapeutic agent that causes the therapeutic effect to the amount that causes toxic effects. Quantitatively, it is the ratio given by the dose required to produce the toxic effect divided by the therapeutic dose.

Where [3] appears, read: concentration at which BVDV infection was inhibited for 50% of MDBK cells, 6 days, MTS.

Structures are written as SMILES. Where two headings read alike, the source gives them in different places. Bounds are passed on as bounds.

In the case of `NC(=O)c1ncn([C@@H]2O[C@H](CO)[C@@H](O)[C@H]2O)n1` [Ribavirin, reference compound], the EC50 in data set [1] (setting [3]) worked out at 1.66 µM. Also, in data set [1], the “TI (TC50/EC50)” value was 4.2. In addition, the CC50 at 6 days in data set [2] (uninfected MDBK cells (drug toxicity control wells), cytotoxicity for MDBK cells, 6 days, MTS, read-out: MDBK TC50) is 7 µM.
With `Cc1cc(C)cc(Sc2c(C(C)C)c(=O)[nH]c(=O)n2CC2CC2)c1` [Sample 1a, 1-cyclopropylmethyl-6-(3,5-dimethyl-phenylsulfanyl)-5-isopropyl-1H-pyrimidine-2,4-dione], the EC50 in data set [1] (setting [3]) was 1.57 µM. Moreover, in data set [1], the “TI (TC50/EC50)” value is 4.2. The CC50 at 6 days in data set [2] stood at 6.6 µM.
Consider `CCc1c(Oc2cc(C)cc(C)c2)n(CC2CC2)c(=O)[nH]c1=O` [Sample 1b, 1-cyclopropylmethyl-6-(3,5-dimethyl-phenoxy)-5-ethyl-1H-pyrimidine-2,4-dione], for which the EC50 in data set [1] (setting [3]) came to 14.1 µM. For the same compound, the “TI (TC50/EC50)” value in data set [1] is reported as greater than 7.1. Moreover, the CC50 at 6 days in data set [2] was greater than 100 µM.
Turning to `Cc1cc(C)cc(Sc2c(C(C)C)c(=O)[nH]c(=O)n2CC2CCC2)c1` [Sample 1c, 1-cyclobutylmethyl-6-(3,5-dimethyl-phenylsulfanyl)-5-isopropyl-1H-pyrimidine-2,4-dione], in data set [1] (setting [3]), the EC50 amounted to 1.44 µM. In addition, the “TI (TC50/EC50)” value in data set [1] is listed as 4.58. Also, the CC50 at 6 days in data set [2] was found to be 6.6 µM.
On the same counts, the results for `Cc1cc(C)cc(Sc2c(C(C)C)c(=O)[nH]c(=O)n2CC2CCCC2)c1` [Sample 1d, 1-cyclopentylmethyl-6-(3,5-dimethyl-phenylsulfanyl)-5-isopropyl-1H-pyrimidine-2,4-dione] are 13.7 µM, greater than 3.7 and greater than 50 µM.
On to `Cc1cc(C)cc(Sc2c(C(C)C)c(=O)[nH]c(=O)n2CC2=CCCC2)c1` [Sample 1e, 1-cyclopent-1-enymethyl-6-(3,5-dimethyl-phenylsulfanyl)-5-isopropyl-1H-pyrimidine-2,4-dione], for which, in data set [1] (setting [3]), the EC50 came out at 10.2 µM. Moreover, the “TI (TC50/EC50)” value in data set [1] is on record as greater than 4.9. This compound also displayed a CC50 at 6 days in data set [2] greater than 50 µM.
On the same counts, the results for `CCc1c(Oc2cc(C)cc(C)c2)n(CC2=CCCC2)c(=O)[nH]c1=O` [Sample 1f, 1-cyolopent-1-enymethyl-6-(3,5-dimethyl-phenoxy)-5-ethyl-1H-pyrimidine-2,4-dione] are 1.51 µM, greater than 66.3 and greater than 100 µM.
On the same counts, the results for `Cc1cc(C)cc(Oc2c(C(C)C)c(=O)[nH]c(=O)n2CC2=CCCC2)c1` [Sample 1g, 1-cyclopent-1-enymethyl-6-(3,5-dimethyl-phenoxy)-5-isopropyl-1H-pyrimidine-2,4-dione] are 20.1 µM, greater than 2.5 and greater than 50 µM.
As for `CCc1c(C(=O)c2cc(C)cc(C)c2)n(CC2=CCCC2)c(=O)[nH]c1=O` [Sample 1h, 1-cyclopent-1-enymethyl-6-(3,5-dimethyl-benzoyl)-5-ethyl-1H-pyrimidine-2,4-dione], in data set [1] (setting [3]), the EC50 turned out to be 13.9 µM. The “TI (TC50/EC50)” value in data set [1] is listed as 1.2. In data set [2], this compound displayed a CC50 at 6 days of 17.1 µM.
On to `Cc1cc(C)cc(C(=O)c2c(C(C)C)c(=O)[nH]c(=O)n2CC2=CCCC2)c1` [Sample 1i, 1-cyclopent-1-enymethyl-6-(3,5-dimethyl-benzoyl)-5-isopropyl-1H-pyrimidine-2,4-dione], for which the EC50 in data set [1] (setting [3]) stood at 1.36 µM. For the same compound, in data set [1], the “TI (TC50/EC50)” value was found to be 15.0. In data set [2], the CC50 at 6 days was found to be 20.5 µM.
On the same counts, the results for `CC(C)c1c(Sc2ccccc2)n(CC2CC=CC2)c(=O)[nH]c1=O` [Sample 1j, 1-cyclopent-3-enymethyl-5-isopropyl-6-phenylsulfanyl-1H-pyrimidine-2,4-dione] are 13.7 µM, greater than 3.7 and greater than 50 µM.
In the same order, the values of `Cc1cc(C)cc(Sc2c(C(C)C)c(=O)[nH]c(=O)n2CC2CCCCC2)c1` [Sample 1k, 1-cyclohexylmethyl-6-(3,5-dimethyl-phenylsulfanyl)-5-isopropyl-1H-pyrimidine-2,4-dione] are 1.29 µM, 5.11 and 6.6 µM.
Take `Cc1cc(C)cc(Sc2c(C(C)C)c(=O)[nH]c(=O)n2CCC2CCCC2)c1` [Sample 1l, 1-(2-cyclopentyl-ethyl)-6-(3,5-dimethyl-phenylsulfanyl)-5-isopropyl-1H-pyrimidine-2,4-dione]: the EC50 in data set [1] (setting [3]) was found to be 14 µM. Moreover, in data set [1], the “TI (TC50/EC50)” value is on record as greater than 3.6. In data set [2], the CC50 at 6 days is greater than 50 µM.
With `Cc1cc(C)cc(Oc2c(C(C)C)c(=O)[nH]c(=O)n2CCC2C=CCC2)c1` (stereo not drawn) [Sample 1m, 1-(2-cyclopent-2-enyl-ethyl)-6-(3,5-dimethyl-phenoxy)-5-isopropyl-1H-pyrimidine-2,4-dione], the EC50 in data set [1] (MDBK) was determined as 13.4 µM. Moreover, the “TI (TC50/EC50)” value in data set [1] was greater than 3.7. Moreover, in data set [2], the CC50 at 6 days was greater than 50 µM.
On the same counts, the results for `Cc1cc(C)cc(C(=O)c2c(C(C)C)c(=O)[nH]c(=O)n2CCC2C=CCC2)c1` (stereo not drawn) [Sample 1o, 1-(2-cyclopent-2-enyl-ethyl)-6-(3,5-dimethyl-benzoyl)-5-isopropyl-1H-pyrimidine-2,4-dione] are 1.86 µM, 3.73 and 6.94 µM.
For `CCc1c(C(=O)c2cc(C)cc(C)c2)n(CC2=CCC(CO)C2)c(=O)[nH]c1=O` (stereo not drawn) [Sample 1p, 6-(3,5-dimethyl-benzoyl)-5-ethyl-1-(4-hydroxymethyl-cyclopent-1-enylmethyl)-1H-pyrimidine-2,4-dione], the EC50 in data set [1] (setting [3]) is 15 µM. Besides, in data set [1], the “TI (TC50/EC50)” value was determined as 5.11. The compound further returned a CC50 at 6 days in data set [2] of 66 µM.

(Values after patent US7851479B2, “Use of pyrimidinedione derivative for preventing or treating hepatitis C” (priority 2006, dated 2010).)
